From patent publication US6452067B1, “Methods to assay for post-transcriptional suppression of gene expression” (DNA Plant Technology Corporation, priority 1997, dated 2002)

What was measured:
Assay type in all cases: cell-based
[1] = tested on: 1345 tomato (an LE-ACS-2 suppressant) leaf explants; assay: GUS assay of SSR pPO7110 in precultured leaf explants, 1345 tomato
Protocol: (§1) Two 4 mm discs were cut from each leaf and placed into a solution of Agrobacteria harboring either the suppression-sensitive GUS reporter construct pPO7110 or a control, nonsuppression-sensitive GUS construct, such as pPO7113, that lacks LE-ACS-2 sequences but is identical in every other respect. The Agrobacteria were previously grown in minimal medium containing sucrose and tetracycline at 1 mg/l to an apparent optical density of about 0.2 at 550 nm. Cultures at densities ranging from 0.1-0.4 were used, but the final density was always adjusted to 0.2 at 550 nm using growth medium. Discs were incubated with the Agrobacteria for 0.5-1.5 minutes, then removed and placed on sterile filter paper that was placed on top of tomato cocultivation medium (MS salts with IAA @ 0.05 mg/l, zeatin @ 1 mg/l and 100 μM acetosyringone and 1% gelrite).
(§2) The plates were incubated at 28° C. in the dark for 2.5 days whereupon the discs were removed and stained for GUS activity using 5-bromo-4-chloro-3-indolyl […] (X-Gluc). The discs were vacuum infiltrated for 2 minutes with the substrate solution containing 100 mM potassium phosphate pH 7.0, 10 mM EDTA, 2 mM potassium ferricyanide, 2 mM potassium ferrocyanide, 500 mg/1 X-Gluc, and 0.1% Triton X-100. Incubation was continued overnight (about 14-16 hr) at 37° C. and the plates were visually inspected for the presence of the insoluble blue precipitate a product of the GUS enzyme acting on the X-Gluc substrate. Tissues derived from nontransformed plants or transformed plants not displaying sense suppression will show the presence of a blue precipitate indicative of GUS activity while tissue derived from plants in the suppressed state will show no or comparatively little blue precipitate.
(§3) Strawberry plants which were continuously cultured in axenic conditions in vitro are used as a source of leaf explants. No ethanol dip or other form of surface sterilization was done on the strawberry leaves. […] This preculture step was carried out under lights at 28° C. for 4 days.
(§4) Three different concentrations of acetyosyringone were used in the preculture medium, 100 μM, 250 μM and 1000 μM.

[2] = tested on: control tomato (line 91103, nontransformed control) leaf explants; assay: GUS assay of SSR pPO7110 in precultured leaf explants, control tomato
Protocol: as §1, §2, §3, §4

strawberry leaf explants = assay: GUS assay in precultured leaf explants, strawberry
Protocol: as §1, §2, §3, §4

[3] = 1 mg/l hormone in preculture/cocultivation medium, 0-10 scale
[4] = vac 100AS (100 μM acetosyringone in preculture medium)
[5] = vac 250AS (250 μM acetosyringone)
[6] = vac 1000AS (1000 μM acetosyringone)

Compound	GUS Assay Results, visual rating of GUS staining (mean in parentheses) [1, 3]	GUS Assay Results, visual rating of GUS staining (mean in parentheses) [2, 3]	GUS Assay Results, visual rating of GUS staining (mean in parentheses) (strawberry leaf explants; [3])	GUS Assay Results, visual rating of GUS staining (mean in parentheses) [1, 4]	GUS Assay Results, visual rating of GUS staining (mean in parentheses) [1, 5]	GUS Assay Results, visual rating of GUS staining (mean in parentheses) [1, 6]	GUS Assay Results, visual rating of GUS staining (mean in parentheses) [2, 4]	GUS Assay Results, visual rating of GUS staining (mean in parentheses) [2, 5]	GUS Assay Results, visual rating of GUS staining (mean in parentheses) [2, 6]	GUS Assay Results, visual rating of GUS staining (mean in parentheses) (strawberry leaf explants; [4])	GUS Assay Results, visual rating of GUS staining (mean in parentheses) (strawberry leaf explants; [5])	GUS Assay Results, visual rating of GUS staining (mean in parentheses) (strawberry leaf explants; [6])	GUS Assay Results, visual rating of GUS staining (mean in parentheses) ([1]; 3 mg/l NAA)	GUS Assay Results, visual rating of GUS staining (mean in parentheses) ([2]; 3 mg/l NAA)	GUS Assay Results, visual rating of GUS staining (mean in parentheses) (strawberry leaf explants; 3 mg/l NAA)
O=C(O)COc1ccc(Cl)cc1Cl [2,4-D]	2,2,3 (2.3)	3,4,7,8 (5.5)	0,0,0,0 (0)												
COc1cc(C(C)=O)cc(OC)c1O [AS, acetosyringone]				0,0,0,0 (0)	0,0,0,0 (0)	0,0,0,0 (0)	0,0,0,0 (0)	0,0,0,0 (0)	0,0,1,2 (0.8)	0,0,0,0 (0)	0,0,0,0 (0)	0,0,0,0 (0)			
O=C(O)Cc1c[nH]c2ccccc12 [IAA]	0,4,4,6 (4.7)	5,8,9,9 (7.8)	0,0,0,0 (0)												
O=C(O)Cc1cccc2ccccc12 [NAA]	0,0,0,1 (0.3)	0,1,3,3 (1.8)	0,0,0,0 (0)										0,1,2,4 (1.8)	3,6,6,6 (5.25)	0,0,0,1 (0.3)
